Test results reported in patent US20050009893A1, “Treatment of high blood pressure during the acute phase of a stroke” (Solvay Pharmaceuticals GmbH, priority 2001, published 2005).

Assay: ACCESS study (acute candesartan cilexetil evaluation in stroke survivors): early antihypertensive treatment after acute stroke versus placebo
Format: in vivo
Conditions: 342 enrolled stroke patients
From the text: In order to clarify the question, the ACCESS study (acute candesarten cilexetil evaluation in stroke survivors) was conceived, which has now been completed.
The rational basis of the ACCESS study was the question whether early treatment of elevated blood pressure values in stroke treatment using a substance which affects the renin-angiotensin system in a blocking manner, could reduce the morbidity, mortality and neurological deficits resulting from such strokes. The main question posed related to the use of early antihypertensive treatment of patients with elevated blood pressure values after a stroke. […]
After enrollment of the patients in the study, a randomized therapy with candesartancilexetil or placebo was carried out. Depending upon the measured blood pressure values and patient specific criteria, the therapy was begun with once daily administration of one half to one tablet (corresponding to from 4 to 8 mg candesartancilexetil or placebo). […]

## CCOc1nc2cccc(C(=O)O)c2n1Cc1ccc(-c2ccccc2-c2nnn[nH]2)cc1 [candesartan]
Early treatment from 72 hours up to and including seven days after the stroke, placebo group first treated after one week (30 events)
  cardiovascular end point (number of events) in the course of a twelve month observation period: 17
Twelve month observation period, 17 vs. 30
  difference with respect to the cardiovascular end point in favor of early treatment versus placebo group: about 43%
